Data reported in ChEMBL document CHEMBL2434930, “Design, synthesis and biological evaluation of novel anti-cytokine 1,2,4-triazine derivatives” (Bioorg Med Chem, 2013).
The source made the active and inactive calls. The calls are words filed in the database; no cut-off is given here.

Experiments:
PBMC [1] = assay: Antiinflammatory activity in human PBMC assessed as inhibition of LPS-induced IL1-beta production at 10 uM treated 30 mins before LPS challenge measured after 6 hrs by ELISA; type: functional
PBMC [2] = assay: Antiinflammatory activity in human PBMC assessed as inhibition of LPS-induced TNFalpha production at 10 uM treated 30 mins before LPS challenge measured after 6 hrs by ELISA; type: functional
PBMC [3] = assay: Cytotoxicity against human PBMC assessed as cell viability at 10 to 20 uM by MTT assay; type: cell-based
MCF7 = assay: Cytotoxicity against human MCF7 cells assessed as cell viability at 10 to 20 uM by MTT assay; type: cell-based; details: mcf7, 20 µM
Rattus norvegicus [4] = assay: Antiinflammatory activity in rat assessed as inhibition of carrageenan-induced paw edema at 10 mg/kg, ip administered 1 hr before carrageenan challenge measured at 4 hrs relative to control; type: functional; details: route intraperitoneal
[5] = target: T1, MAP kinase p38 (Homo sapiens) (UniProt O15264+Q15759+Q16539+P53778); assay: Inhibition of etoposide-induced p38 MAPK activation in human MCF7 cells at 20 uM treated 30 mins before etoposide challenge measured after 3 hrs by Western blot analysis; type: cell-based
Rattus norvegicus [6] = assay: Antiinflammatory activity in rat assessed as inhibition of carrageenan-induced paw edema at 10 mg/kg, ip administered 1 hr before carrageenan challenge measured at 3 hrs relative to control; type: functional; details: route intraperitoneal
Rattus norvegicus [7] = assay: Antiinflammatory activity in rat assessed as inhibition of carrageenan-induced paw edema at 10 mg/kg, ip administered 1 hr before carrageenan challenge measured at 1 hr relative to control; type: functional; details: route intraperitoneal
[8] = target: T1, MAP kinase p38 (Homo sapiens); assay: Inhibition of etoposide-induced p38 MAPK activation in human MCF7 cells assessed as phosphorylated ATF-2 level at 20 uM treated 30 mins before etoposide challenge measured after 3 hrs by Western blot analysis; type: cell-based
Rattus norvegicus [9] = assay: Antiinflammatory activity in rat assessed as inhibition of carrageenan-induced paw edema at 10 mg/kg, ip administered 1 hr before carrageenan challenge measured at 2 hrs relative to control; type: functional; details: route intraperitoneal
Rattus norvegicus [10] = assay: Antiinflammatory activity in rat assessed as inhibition of carrageenan-induced paw edema at 50 mg/kg, ip administered 1 hr before carrageenan challenge measured at 1 hr relative to control; type: functional; details: route intraperitoneal
Rattus norvegicus [11] = assay: Antiinflammatory activity in rat assessed as inhibition of carrageenan-induced paw edema at 50 mg/kg, ip administered 1 hr before carrageenan challenge measured at 4 hrs relative to control; type: functional; details: route intraperitoneal
Rattus norvegicus [12] = assay: Antiinflammatory activity in rat assessed as inhibition of carrageenan-induced paw edema at 50 mg/kg, ip administered 1 hr before carrageenan challenge measured at 3 hrs relative to control; type: functional; details: route intraperitoneal
Rattus norvegicus [13] = assay: Antiinflammatory activity in rat assessed as inhibition of carrageenan-induced paw edema at 50 mg/kg, ip administered 1 hr before carrageenan challenge measured at 2 hrs relative to control; type: functional; details: route intraperitoneal

Compound	inhibition at 10 µM (PBMC [1]) [%]	inhibition at 10 µM (PBMC [2]) [%]	Activity (PBMC [3])	Activity (MCF7)	also measured
Oc1ccc(-c2nc(-c3ccc(F)cc3)c(-c3ccncc3)[nH]2)cc1 [SB-202190]	93.4	87.2			
COc1ccc(-c2nnc(N/N=C/c3ccc4c(c3)OCO4)nc2-c2ccc(OC)cc2)cc1	86.9	52.2	Non-toxic	Non-toxic	
COc1ccc(-c2nnc(N/N=C/c3ccncc3)nc2-c2ccc(OC)cc2)cc1	60.8	41.8	Non-toxic	Non-toxic	
COc1ccc(-c2nnc(N/N=C/c3cccs3)nc2-c2ccc(OC)cc2)cc1	81.8	57.5	Non-toxic	Non-toxic	
COc1ccc(-c2nnc(N/N=C/c3ccc([N+](=O)[O-])cc3)nc2-c2ccc(OC)cc2)cc1	15.5	37.6	Non-toxic	Non-toxic	
COc1ccc(-c2nnc(N/N=C/c3ccc(O)c(OC)c3)nc2-c2ccc(OC)cc2)cc1	84.3	46.1	Non-toxic	Non-toxic	
COc1ccc(-c2nnc(N/N=C/c3ccc(F)cc3)nc2-c2ccc(OC)cc2)cc1	27.9	34.5	Non-toxic	Non-toxic	
COc1ccc(-c2nnc(N/N=C/c3ccco3)nc2-c2ccc(OC)cc2)cc1	84	71.1	Non-toxic	Non-toxic	
COc1ccc(-c2nnc(N/N=C/c3cccc(O)c3O)nc2-c2ccc(OC)cc2)cc1	78.2	46.7	Non-toxic	Non-toxic	
COc1ccc(-c2nnc(N/N=C/c3ccc(Cl)cc3Cl)nc2-c2ccc(OC)cc2)cc1	86.9	70	Non-toxic	Non-toxic	
COc1ccc(-c2nnc(N/N=C/c3cccc(OC)c3OC)nc2-c2ccc(OC)cc2)cc1	89.8	71.8	Non-toxic	Non-toxic	inhibition in vivo at 10 mg/kg (Rattus norvegicus [4]): 75.6%; inhibition [5]: inactive; inhibition in vivo at 10 mg/kg (Rattus norvegicus [6]): 64.2%; inhibition in vivo at 10 mg/kg (Rattus norvegicus [7]): 38.8%; inhibition [8]: Active; inhibition in vivo at 10 mg/kg (Rattus norvegicus [9]): 45.3%
COc1ccc(/C=N/Nc2nnc(-c3ccc(OC)cc3)c(-c3ccc(OC)cc3)n2)cc1	35.9	48.5	Non-toxic	Non-toxic	
COc1ccc(-c2nnc(N/N=C/c3ccccc3)nc2-c2ccc(OC)cc2)cc1	71.5	53.1	Non-toxic	Non-toxic	
COc1ccc(-c2nnc(N/N=C/c3cc4ccccc4[nH]3)nc2-c2ccc(OC)cc2)cc1	82.3	53.3	Non-toxic	Non-toxic	
COc1ccc(-c2nnc(N/N=C/c3ccc(OC)c(OC)c3)nc2-c2ccc(OC)cc2)cc1	39.9	45	Non-toxic	Non-toxic	
COc1ccc2c(c1)c(CC(=O)O)c(C)n2C(=O)c1ccc(Cl)cc1 [INDOMETHACIN]					inhibition in vivo at 50 mg/kg (Rattus norvegicus [10]): 19.2%; inhibition in vivo at 50 mg/kg (Rattus norvegicus [11]): 68.2%; inhibition in vivo at 50 mg/kg (Rattus norvegicus [12]): 48.2%; inhibition in vivo at 50 mg/kg (Rattus norvegicus [13]): 28.4%
COc1ccc(-c2nnc(N/N=C/c3ccc(O)cc3O)nc2-c2ccc(OC)cc2)cc1	51.8	32.7	Non-toxic	Non-toxic	
COc1ccc(-c2nnc(N/N=C/c3c(Cl)cccc3[N+](=O)[O-])nc2-c2ccc(OC)cc2)cc1	2.81	47.9	Non-toxic	Non-toxic	
